biological target: T1, Human Factor XIIa (Homo sapiens, UniProt P00748); test: Determination of FXIIa inhibition (fluorogenic substrate H-DPro-Phe-Arg-AFC, IC50 assay); assay type: biochemical; conditions: substrate at Km concentration, 25° C.; category scale; read-out: Human FXII IC50 (nm)
T1 construct: Proteolytic cleavage of FXII to heavy and light chains of FXIIa dramatically increases catalytic activity; purchased Enzyme Research Laboratories
T1 sequence (P00748 373-615 limits assumed): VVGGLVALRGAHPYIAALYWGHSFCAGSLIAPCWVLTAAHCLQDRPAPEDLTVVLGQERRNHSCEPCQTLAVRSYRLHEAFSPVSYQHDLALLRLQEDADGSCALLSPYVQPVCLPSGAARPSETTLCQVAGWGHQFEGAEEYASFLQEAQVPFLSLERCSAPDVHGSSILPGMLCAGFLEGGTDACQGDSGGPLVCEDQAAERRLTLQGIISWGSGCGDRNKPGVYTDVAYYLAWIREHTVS
T1 sequence (P00748 20-372 partner limits assumed): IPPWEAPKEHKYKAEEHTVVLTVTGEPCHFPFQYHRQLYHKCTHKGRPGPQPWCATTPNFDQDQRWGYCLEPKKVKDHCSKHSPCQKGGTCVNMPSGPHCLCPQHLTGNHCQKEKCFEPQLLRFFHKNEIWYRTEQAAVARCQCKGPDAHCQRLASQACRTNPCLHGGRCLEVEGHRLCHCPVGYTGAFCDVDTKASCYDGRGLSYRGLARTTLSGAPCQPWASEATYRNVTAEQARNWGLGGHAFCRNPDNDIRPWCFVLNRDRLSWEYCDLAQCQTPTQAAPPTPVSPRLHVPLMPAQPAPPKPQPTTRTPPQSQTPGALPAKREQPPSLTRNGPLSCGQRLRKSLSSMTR
Description: In vitro inhibition of Factor XIIa was determined using an IC50 assay based on standard literature methods (see e.g Baeriswyl et al., ACS Chem. Biol., 2015, 10 (8) 1861; Bouckaert et al., European Journal of Medicinal Chemistry 110 (2016) 181). Human Factor XIIa (Enzyme Research Laboratories) was incubated at 25° C. with the fluorogenic substrate H-DPro-Phe-Arg-AFC (Peptide Protein Science) and various concentrations of the test compound. Protease activity was measured by monitoring the accumulation of liberated fluorescence from the substrate over 5 min at 25° C. The linear rate of fluorescence increase per minute was expressed as percentage (%) activity. The Km for the cleavage of the substrate by FXIIa was determined by standard transformation of the Michaelis-Menten equation. The compound inhibitor assays were performed at substrate Km concentration. IC50 values were calculated as the concentration of inhibitor giving 50% inhibition (IC50) of the uninhibited enzyme activity (100%).

Row | SMILES | IC50 [nM]
1 | Nc1nccc2c(NCC34CC(COc5ccn6c(C(F)(F)F)nnc6c5)(CCO3)C4)cccc12 [Example 10961, N5-((5-(((3-(trifluoromethyl)-[1,2,4]triazolo[4,3-a]pyridin-7-yl)oxy)methyl)-2-oxabicyclo[3.1.1]heptan-1-yl)methyl)isoquinoline-1,5-diamine] | 300 to 1000
2 | Cc1cn(C)c(=O)nc1OCC12CCOC(CNc3cccc4c(N)nccc34)(C1)C2 [Example 10962, 4-((1-(((1-aminoisoquinolin-5-yl)amino)methyl)-2-oxabicyclo[3.1.1]heptan-5-yl)methoxy)-1,5-dimethylpyrimidin-2(1H)-one] | 1000 to 3000
3 | Nc1nccc2c(NCC34CC(COc5ccnnc5)(CCO3)C4)cccc12 [Example 10963, N5-((5-((pyridazin-4-yloxy)methyl)-2-oxabicyclo[3.1.1]heptan-1-yl)methyl)isoquinoline-1,5-diamine] | 3000 to 10000
4 | CCn1c(C)cc(OCC23CCOC(CNc4cccc5c(N)nccc45)(C2)C3)cc1=O [Example 10964, 4-((1-(((1-aminoisoquinolin-5-yl)amino)methyl)-2-oxabicyclo[3.1.1]heptan-5-yl)methoxy)-1-ethyl-6-methylpyridin-2(1H)-one] | 10 to 100
5 | Nc1nccc2c(NCC34CC(COc5cccnc5)(CCO3)C4)cccc12 [Example 10968, N5-((5-((pyridin-3-yloxy)methyl)-2-oxabicyclo[3.1.1]heptan-1-yl)methyl)isoquinoline-1,5-diamine] | 3000 to 10000
6 | Nc1nccc2c(NCC34CC(COc5ccn6nncc6c5)(CCO3)C4)cccc12 [Example 10969, N5-((5-(([1,2,3]triazolo[1,5-a]pyridin-5-yloxy)methyl)-2-oxabicyclo[3.1.1]heptan-1-yl)methyl)isoquinoline-1,5-diamine] | 1000 to 3000
7 | Cc1cc(OCC23CCOC(CNc4cccc5c(N)nccc45)(C2)C3)ncn1 [Example 10971, N5-((5-(((6-methylpyrimidin-4-yl)oxy)methyl)-2-oxabicyclo[3.1.1]heptan-1-yl)methyl)isoquinoline-1,5-diamine] | 300 to 1000
8 | Nc1nccc2c(NCC34CC(COc5cc6n(c(=O)c5)CCC6)(CCO3)C4)cccc12 [Example 10972, 7-((1-(((1-aminoisoquinolin-5-yl)amino)methyl)-2-oxabicyclo[3.1.1]heptan-5-yl)methoxy)-2,3-dihydroindolizin-5(1H)-one] | 10 to 100
9 | Nc1nccc2c(NCC34CC(COc5ccc6ncoc6c5)(CCO3)C4)cccc12 [Example 10973, N5-((5-((benzo[d]oxazol-6-yloxy)methyl)-2-oxabicyclo[3.1.1]heptan-1-yl)methyl)isoquinoline-1,5-diamine] | 1000 to 3000
10 | Cc1nccc(OCC23CCOC(CNc4cccc5c(N)nccc45)(C2)C3)n1 [Example 10974, N5-((5-(((2-methylpyrimidin-4-yl)oxy)methyl)-2-oxabicyclo[3.1.1]heptan-1-yl)methyl)isoquinoline-1,5-diamine] | 3000 to 10000
11 | Nc1nccc2c(NCC34CC(COc5ccn(C(F)F)c(=O)c5)(CCO3)C4)cccc12 [Example 10975, 4-((1-(((1-aminoisoquinolin-5-yl)amino)methyl)-2-oxabicyclo[3.1.1]heptan-5-yl)methoxy)-1-(difluoromethyl)pyridin-2(1H)-one] | 300 to 1000
12 | Nc1nccc2c(NCC34CC(COc5cnccn5)(CCO3)C4)cccc12 [Example 10976, N5-((5-((pyrazin-2-yloxy)methyl)-2-oxabicyclo[3.1.1]heptan-1-yl)methyl)isoquinoline-1,5-diamine] | 10000 to 40000
13 | Cn1ccc(OCC23CNC(CNc4ccc5c(N)nccc5c4)(C2)C3)cc1=O [Example 12011, 4-((1-(((1-aminoisoquinolin-6-yl)amino)methyl)-2-azabicyclo[2.1.1]hexan-4-yl)methoxy)-1-methylpyridin-2(1H)-one] | 300 to 1000
14 | CN1Cc2ccc(OCC34CN(C(=O)OCc5ccccc5)C(CNc5cccc6c(N)nccc56)(C3)C4)cc2C1=O [Example 12012, benzyl 1-(((1-aminoisoquinolin-5-yl)amino)methyl)-4-(((2-methyl-3-oxoisoindolin-5-yl)oxy)methyl)-2-azabicyclo[2.1.1]hexane-2-carboxylate] | 100 to 300
15 | COC(=O)N1CC2(COc3ccn(C)c(=O)c3)CC1(CNc1ccc3c(N)nccc3c1)C2 [Example 12013, methyl 1-(((1-aminoisoquinolin-6-yl)amino)methyl)-4-(((1-methyl-2-oxo-1,2-dihydropyridin-4-yl)oxy)methyl)-2-azabicyclo[2.1.1]hexane-2-carboxylate] | 300 to 1000
16 | Cn1ccc(OCC23CN(S(=O)(=O)CCc4ccccc4)C(CNc4cccc5c(N)nccc45)(C2)C3)cc1=O [Example 12014, 4-[[1-[[(1-aminoisoquinolin-5-yl)amino]methyl]-2-(2-phenylethylsulfonyl)-2-azabicyclo[2.1.1]hexan-4-yl]methoxy]-1-methylpyridin-2-one] | 10 to 100
17 | Cn1ccc(OCC23CN(C(=O)Oc4ccccc4Cl)C(CNc4cccc5c(N)nccc45)(C2)C3)cc1=O [Example 12015, 2-chlorophenyl 1-(((1-aminoisoquinolin-5-yl)amino)methyl)-4-(((1-methyl-2-oxo-1,2-dihydropyridin-4-yl)oxy)methyl)-2-azabicyclo[2.1.1]hexane-2-carboxylate] | 10 to 100
18 | CN1Cc2cc(OCC34CN(C(=O)OCc5ccccc5)C(CNc5cccc6c(N)nccc56)(C3)C4)ccc2C1=O [Example 12018, benzyl 1-(((1-aminoisoquinolin-5-yl)amino)methyl)-4-(((2-methyl-1-oxoisoindolin-5-yl)oxy)methyl)-2-azabicyclo[2.1.1]hexane-2-carboxylate] | 10 to 100
19 | Cn1ccc(OCC23CN(C(=O)OCc4ccc(F)c(F)c4)C(CNc4cccc5c(N)nccc45)(C2)C3)cc1=O [Example 12020, 3,4-difluorobenzyl 1-(((1-aminoisoquinolin-5-yl)amino)methyl)-4-(((1-methyl-2-oxo-1,2-dihydropyridin-4-yl)oxy)methyl)-2-azabicyclo[2.1.1]hexane-2-carboxylate] | 100 to 300
20 | Cn1ccc(OCC23CN(C(=O)OCc4ccccn4)C(CNc4cccc5c(N)nccc45)(C2)C3)cc1=O [Example 12021, pyridin-2-ylmethyl 1-(((1-aminoisoquinolin-5-yl)amino)methyl)-4-(((1-methyl-2-oxo-1,2-dihydropyridin-4-yl)oxy)methyl)-2-azabicyclo[2.1.1]hexane-2-carboxylate] | 10 to 100
21 | Cn1ccc(OCC23CN(C(=O)OCc4cccnc4)C(CNc4cccc5c(N)nccc45)(C2)C3)cc1=O [Example 12022, pyridin-3-ylmethyl 1-(((1-aminoisoquinolin-5-yl)amino)methyl)-4-(((1-methyl-2-oxo-1,2-dihydropyridin-4-yl)oxy)methyl)-2-azabicyclo[2.1.1]hexane-2-carboxylate] | 10 to 100
22 | Cn1ccc(OCC23CN(C(=O)OCc4ccccc4Cl)C(CNc4cccc5c(N)nccc45)(C2)C3)cc1=O [Example 12023, 2-chlorobenzyl 1-(((1-aminoisoquinolin-5-yl)amino)methyl)-4-(((1-methyl-2-oxo-1,2-dihydropyridin-4-yl)oxy)methyl)-2-azabicyclo[2.1.1]hexane-2-carboxylate] | 10 to 100
23 | Cn1ccc(OCC23CN(C(=O)OCc4ccc5ccccc5c4)C(CNc4cccc5c(N)nccc45)(C2)C3)cc1=O [Example 12024, naphthalen-2-ylmethyl 1-(((1-aminoisoquinolin-5-yl)amino)methyl)-4-(((1-methyl-2-oxo-1,2-dihydropyridin-4-yl)oxy)methyl)-2-azabicyclo[2.1.1]hexane-2-carboxylate] | 100 to 300
24 | Cn1ccc(OCC23CN(C(=O)OCc4ccccc4)C(CNc4ccnc5[nH]c(Cl)cc45)(C2)C3)cc1=O [Example 12025, benzyl 1-(((2-chloro-1H-pyrrolo[2,3-b]pyridin-4-yl)amino)methyl)-4-(((1-methyl-2-oxo-1,2-dihydropyridin-4-yl)oxy)methyl)-2-azabicyclo[2.1.1]hexane-2-carboxylate] | 1000 to 3000
25 | Cn1cc(COC(=O)N2CC3(COc4ccn(C)c(=O)c4)CC2(CNc2cccc4c(N)nccc24)C3)cn1 [Example 12026, (1-methyl-1H-pyrazol-4-yl)methyl 1-(((1-aminoisoquinolin-5-yl)amino)methyl)-4-(((1-methyl-2-oxo-1,2-dihydropyridin-4-yl)oxy)methyl)-2-azabicyclo[2.1.1]hexane-2-carboxylate] | 100 to 300
